Data from article PMC2674222 (Biochemistry, 2009).
Read-outs that look alike come from different tables or passages of the source.

Legend:
[1] = target: Leuko-PNP; settings: read-out: Ki* (slow-onset tight binding constant); 50 mM KH2PO4, pH 7.4, 25 °C; cited from earlier work
[2] = target: T1, F159W-Leuko-PNP (Homo sapiens, UniProt P00491, F159W/W16Y/W178Y/W94Y); settings: relative to native and Leuko-PNP (Table 2)
T1 sequence (P00491 1-289 W16Y/W94Y/F159W/W178Y): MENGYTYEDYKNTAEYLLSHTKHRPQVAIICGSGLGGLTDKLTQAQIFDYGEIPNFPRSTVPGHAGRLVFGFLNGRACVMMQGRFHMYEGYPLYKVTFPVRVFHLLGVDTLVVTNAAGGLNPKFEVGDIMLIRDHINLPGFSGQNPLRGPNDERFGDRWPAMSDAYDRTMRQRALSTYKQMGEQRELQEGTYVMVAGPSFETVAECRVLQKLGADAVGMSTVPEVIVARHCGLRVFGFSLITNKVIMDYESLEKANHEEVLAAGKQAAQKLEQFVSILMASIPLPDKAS

[3] = target: Native PNP; settings: read-out: Ki* (slow-onset tight binding constant); 50 mM KH2PO4, pH 7.4, 25 °C; cited from earlier work
[4] = target: T1, F159W-Leuko-PNP; experiment: Fluorometric titration of hypoxanthine-free enzyme with ligands; assay type: binding; settings: for Kd: pH 7.4, 25 °C
[5] = test system: Native PNP; settings: inosine as substrate; 50 mM KH2PO4, pH 7.4, 25 °C; cited from earlier work
[6] = target: T1, F159W-Leuko-PNP; experiment: Steady state kinetics, xanthine oxidase coupled assay with inosine as substrate; assay type: biochemical
[7] = test system: Leuko-PNP; settings: inosine as substrate; 50 mM KH2PO4, pH 7.4, 25 °C; cited from earlier work
[8] = test system: Leuko-PNP-PO4; settings: T-jump relaxation kinetics; cited from earlier work
[9] = test system: Leuko-PNP-PO4; settings: stopped-flow fluorometry; cited from earlier work
[10] = target: T2, F159W-Leuko-PNP-PO4 (Homo sapiens, UniProt P00491, F159W/W16Y/W178Y/W94Y); settings: F159W-Leuko-PNP-Hx-PO4 system, 25 °C
[11] = target: T2, F159W-Leuko-PNP-PO4; experiment: biochemical
[12] = substrate: OC[C@H]1O[C@@H](n2cnc3c(O)ncnc32)[C@H](O)[C@@H]1O; experiment: Steady state kinetics, xanthine oxidase coupled assay with inosine as substrate; assay type: biochemical, human; settings: other: inosine as substrate, 50 mM KH2PO4, pH 7.4, 25 °C

4'-deaza-1'-aza-2'-deoxy-1'-(9-methylene)-Immucillin-H [DADMe-ImmH]
Ki [1]: 0.012 ± 0.003 nM | reduction of binding affinity to F159W-Leuko-PNP [2]: ~10 fold | Ki [3]: 0.0085 ± 0.0003 nM

O=c1[nH]cnc2c1ncn2[C@@H]1O[C@H](CO)[C@@H](O)[C@H]1O [Inosine, inosine]
effect on fluorescence emission spectrum of the enzyme ([4]; up to ∼100 μM, absence or presence of inorganic sulfate (up to 3 mM)): does not alter the fluorescence emission spectrum | Km [5]: 71 ± 8 µM | kcat [5]: 44 ± 2 s⁻¹ | Km altered, F159W-Leuko-PNP vs native and Trp-free enzymes [6]: ~7 fold | kcat altered, F159W-Leuko-PNP vs native and Trp-free enzymes [6]: ~2 fold | overall catalytic efficiency reduced relative to native- and Leuko-PNPs [6]: ~14 fold | Km [7]: 50 ± 3 µM | kcat [7]: 36 ± 1 s⁻¹

Nc1nc2nc[nH]c2c(=O)[nH]1 [guanine]
koff [8]: 142 ± 36 s⁻¹ | kon [8]: 3.6 ± 0.2 × 10^7 M^−1s^−1 | koff [9]: 86 ± 8 s⁻¹ | kon [9]: 2.7 ± 0.1 × 10^7 M^−1s^−1

O=c1[nH]cnc2nc[nH]c12 [hypoxanthine]
Kd ([4]; absence of phosphate, 20 mM Tris-Cl): 3.3 ± 0.2 µM | Kd ([4]; presence of phosphate (50 mM KH2PO4)): 16 ± 2 µM | decrease in fluorescence intensity upon titration ([4]; absence or presence of phosphate (50 mM KH2PO4), λex 295 nm): 3 fold | k1 [10]: (1.2 ± 0.1) × 10^7 M^−1s^−1 | k−1 [10]: 178 ± 8 s⁻¹ | koff ([11]; read-out: calculated dissociation rate (koff)): 178 ± 8 s⁻¹ | kon ([11]; read-out: rate of association (kon)): 1.2e+07 M⁻¹ s⁻¹

Immucillin-H [ImmH]
Ki [1]: 0.134 ± 0.012 nM | reduction of binding affinity to F159W-Leuko-PNP [2]: ~20 fold | Ki [3]: 0.088 ± 0.003 nM

B1: F159W-Leuko-PNP (Homo sapiens; F159W/W16Y/W178Y/W94Y) (protein)
chain: T1 sequence (P00491 1-289 W16Y/W94Y/F159W/W178Y)
Km [12]: 422 ± 30 µM | kcat [12]: 22 ± 1 s⁻¹ | kcat/Km [12]: 52000 ± 4000 M⁻¹ s⁻¹
